Results published in the supplement of paper PMC12076712.

Assays:
Experiment in all cases: pIC50, kinobeads binding competition
UniProt Q13164 = biological target: UniProt Q13164
How it was run: (§1)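 Either living Jurkat cells (60 min at 37 °C, then lysis) or lysates (60 min at 4 °C) were treated with nine compound concentrations from a top of 30 μM, in 1:4 steps for cells and 1:5 steps for lysates. The lysates were from Jurkat cells or a 1:1:1:1 mix of HEK293, K-562, HepG2 and placenta. Kinobeads-bound proteins were digested and quantified by TMT10 LC-MS/MS. pIC50 was calculated by logistic dose-response fitting (R drc package) of fold changes relative to vehicle, in biological duplicates.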

UniProt Q05397 = biological target: UniProt Q05397
How it was run: as §1

UniProt Q13557 = biological target: UniProt Q13557
How it was run: as §1

UniProt P48729 = biological target: UniProt P48729
How it was run: as §1

UniProt O14920 = biological target: T1, UniProt O14920
T1 sequence (whole entry): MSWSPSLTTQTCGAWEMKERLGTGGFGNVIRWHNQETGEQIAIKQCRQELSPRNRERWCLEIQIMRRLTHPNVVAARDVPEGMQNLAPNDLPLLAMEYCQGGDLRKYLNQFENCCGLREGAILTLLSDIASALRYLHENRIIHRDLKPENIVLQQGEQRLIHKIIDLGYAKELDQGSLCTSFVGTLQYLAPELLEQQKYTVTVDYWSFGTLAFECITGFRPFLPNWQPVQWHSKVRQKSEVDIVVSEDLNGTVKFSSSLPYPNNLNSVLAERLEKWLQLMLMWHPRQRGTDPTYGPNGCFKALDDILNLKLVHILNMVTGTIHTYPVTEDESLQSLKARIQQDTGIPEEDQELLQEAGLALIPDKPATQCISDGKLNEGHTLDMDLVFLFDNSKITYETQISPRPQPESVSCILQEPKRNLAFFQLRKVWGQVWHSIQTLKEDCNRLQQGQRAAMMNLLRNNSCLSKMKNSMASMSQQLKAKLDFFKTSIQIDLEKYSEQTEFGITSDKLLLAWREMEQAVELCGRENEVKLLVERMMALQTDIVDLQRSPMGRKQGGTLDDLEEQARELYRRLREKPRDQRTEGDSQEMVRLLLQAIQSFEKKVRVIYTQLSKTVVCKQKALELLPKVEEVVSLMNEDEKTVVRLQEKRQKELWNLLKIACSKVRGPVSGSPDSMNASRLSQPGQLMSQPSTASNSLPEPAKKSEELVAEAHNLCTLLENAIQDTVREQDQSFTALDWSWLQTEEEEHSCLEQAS
How it was run: as §1

UniProt Q13233 = biological target: UniProt Q13233
How it was run: as §1

UniProt P06493 = biological target: UniProt P06493
How it was run: as §1

UniProt Q15418 = biological target: UniProt Q15418
How it was run: as §1

EIF2AK4 = EIF2AK4 (UniProt Q9P2K8)
How it was run: as §1

BUB1 = BUB1 (UniProt O43683)
How it was run: as §1

CDK6 = CDK6 (UniProt Q00534)
How it was run: as §1

FGFR1 = FGFR1 (UniProt P11362)
How it was run: as §1

UniProt P49841 = biological target: UniProt P49841
How it was run: as §1

UniProt O75716 = biological target: UniProt O75716
How it was run: as §1

UniProt O14757 = biological target: T2, UniProt O14757
T2 sequence (whole entry): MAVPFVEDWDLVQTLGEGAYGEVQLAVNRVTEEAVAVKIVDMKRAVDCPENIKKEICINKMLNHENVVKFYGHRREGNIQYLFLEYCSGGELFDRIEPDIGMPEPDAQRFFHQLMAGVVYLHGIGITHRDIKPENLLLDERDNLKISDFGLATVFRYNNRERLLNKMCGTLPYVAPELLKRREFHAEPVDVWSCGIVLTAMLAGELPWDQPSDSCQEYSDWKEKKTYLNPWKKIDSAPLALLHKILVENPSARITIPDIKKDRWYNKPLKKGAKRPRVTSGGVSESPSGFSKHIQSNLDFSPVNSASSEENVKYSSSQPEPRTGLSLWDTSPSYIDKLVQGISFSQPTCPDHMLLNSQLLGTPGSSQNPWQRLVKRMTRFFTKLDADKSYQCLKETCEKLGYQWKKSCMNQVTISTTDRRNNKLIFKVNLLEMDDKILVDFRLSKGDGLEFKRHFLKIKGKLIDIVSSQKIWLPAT
How it was run: as §1

STK39 = STK39 (UniProt Q9UEW8)
How it was run: as §1

TGFBR2 = TGFBR2 (UniProt P37173)
How it was run: as §1

UniProt Q92918 = biological target: UniProt Q92918
How it was run: as §1

UniProt Q13188 = biological target: T3, UniProt Q13188
T3 sequence (whole entry): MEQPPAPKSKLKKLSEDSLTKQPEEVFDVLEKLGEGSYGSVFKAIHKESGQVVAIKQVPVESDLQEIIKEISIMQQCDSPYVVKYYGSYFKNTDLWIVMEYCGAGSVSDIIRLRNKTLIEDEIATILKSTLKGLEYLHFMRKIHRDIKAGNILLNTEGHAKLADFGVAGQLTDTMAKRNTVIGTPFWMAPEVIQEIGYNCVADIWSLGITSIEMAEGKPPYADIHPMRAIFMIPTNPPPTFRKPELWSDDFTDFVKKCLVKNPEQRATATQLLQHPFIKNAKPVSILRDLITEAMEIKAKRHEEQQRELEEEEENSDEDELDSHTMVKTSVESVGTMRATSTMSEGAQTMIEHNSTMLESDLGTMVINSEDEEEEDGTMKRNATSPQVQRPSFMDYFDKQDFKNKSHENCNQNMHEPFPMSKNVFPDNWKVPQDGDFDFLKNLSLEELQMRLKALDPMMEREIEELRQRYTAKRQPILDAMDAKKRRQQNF
How it was run: as §1

CDK4 = CDK4 (UniProt P11802); details: cell material: Lysate mix
How it was run: as §1

Sequence of CDK6 (Q00534 whole entry): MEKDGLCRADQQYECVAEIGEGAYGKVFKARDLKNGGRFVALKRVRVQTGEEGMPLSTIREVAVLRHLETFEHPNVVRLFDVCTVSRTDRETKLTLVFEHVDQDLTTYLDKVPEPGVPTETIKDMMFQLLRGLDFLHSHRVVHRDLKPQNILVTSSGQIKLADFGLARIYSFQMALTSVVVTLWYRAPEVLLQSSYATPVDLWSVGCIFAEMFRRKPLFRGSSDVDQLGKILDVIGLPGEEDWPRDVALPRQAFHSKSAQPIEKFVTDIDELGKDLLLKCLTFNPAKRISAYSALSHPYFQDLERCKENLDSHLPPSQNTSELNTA
Sequence of UniProt Q92918 (Q92918 whole entry, looked up): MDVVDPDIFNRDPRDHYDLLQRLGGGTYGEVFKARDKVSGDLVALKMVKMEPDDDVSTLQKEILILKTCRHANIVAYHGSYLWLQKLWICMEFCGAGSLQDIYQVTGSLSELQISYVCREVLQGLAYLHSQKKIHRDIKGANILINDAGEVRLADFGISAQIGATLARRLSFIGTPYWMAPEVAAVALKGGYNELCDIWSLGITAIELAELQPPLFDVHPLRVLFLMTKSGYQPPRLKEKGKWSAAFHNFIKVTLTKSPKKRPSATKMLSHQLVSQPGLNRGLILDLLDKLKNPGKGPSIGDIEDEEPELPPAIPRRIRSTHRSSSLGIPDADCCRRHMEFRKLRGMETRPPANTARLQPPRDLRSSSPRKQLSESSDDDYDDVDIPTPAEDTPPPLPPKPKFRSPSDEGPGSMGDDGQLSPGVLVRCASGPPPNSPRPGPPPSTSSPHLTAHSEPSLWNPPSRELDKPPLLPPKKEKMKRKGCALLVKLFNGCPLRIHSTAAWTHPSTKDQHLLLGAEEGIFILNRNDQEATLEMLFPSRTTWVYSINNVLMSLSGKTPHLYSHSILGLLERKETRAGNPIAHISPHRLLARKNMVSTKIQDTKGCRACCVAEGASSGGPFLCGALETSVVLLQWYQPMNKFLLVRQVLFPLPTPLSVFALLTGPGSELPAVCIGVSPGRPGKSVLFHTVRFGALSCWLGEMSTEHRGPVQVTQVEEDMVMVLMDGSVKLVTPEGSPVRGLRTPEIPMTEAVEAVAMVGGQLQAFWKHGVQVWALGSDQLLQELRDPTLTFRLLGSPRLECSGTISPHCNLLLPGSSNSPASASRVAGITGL
Sequence of UniProt P48729 (P48729 whole entry, looked up): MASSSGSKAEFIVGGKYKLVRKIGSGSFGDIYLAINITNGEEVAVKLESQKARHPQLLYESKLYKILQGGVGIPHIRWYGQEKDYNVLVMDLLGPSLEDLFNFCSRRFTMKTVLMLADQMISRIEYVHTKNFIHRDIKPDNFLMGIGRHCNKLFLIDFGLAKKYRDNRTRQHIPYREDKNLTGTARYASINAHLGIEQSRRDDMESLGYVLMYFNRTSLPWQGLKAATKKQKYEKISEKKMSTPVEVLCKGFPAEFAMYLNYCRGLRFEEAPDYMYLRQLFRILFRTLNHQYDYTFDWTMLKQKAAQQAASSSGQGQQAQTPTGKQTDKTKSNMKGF
Sequence of BUB1 (O43683 whole entry, looked up): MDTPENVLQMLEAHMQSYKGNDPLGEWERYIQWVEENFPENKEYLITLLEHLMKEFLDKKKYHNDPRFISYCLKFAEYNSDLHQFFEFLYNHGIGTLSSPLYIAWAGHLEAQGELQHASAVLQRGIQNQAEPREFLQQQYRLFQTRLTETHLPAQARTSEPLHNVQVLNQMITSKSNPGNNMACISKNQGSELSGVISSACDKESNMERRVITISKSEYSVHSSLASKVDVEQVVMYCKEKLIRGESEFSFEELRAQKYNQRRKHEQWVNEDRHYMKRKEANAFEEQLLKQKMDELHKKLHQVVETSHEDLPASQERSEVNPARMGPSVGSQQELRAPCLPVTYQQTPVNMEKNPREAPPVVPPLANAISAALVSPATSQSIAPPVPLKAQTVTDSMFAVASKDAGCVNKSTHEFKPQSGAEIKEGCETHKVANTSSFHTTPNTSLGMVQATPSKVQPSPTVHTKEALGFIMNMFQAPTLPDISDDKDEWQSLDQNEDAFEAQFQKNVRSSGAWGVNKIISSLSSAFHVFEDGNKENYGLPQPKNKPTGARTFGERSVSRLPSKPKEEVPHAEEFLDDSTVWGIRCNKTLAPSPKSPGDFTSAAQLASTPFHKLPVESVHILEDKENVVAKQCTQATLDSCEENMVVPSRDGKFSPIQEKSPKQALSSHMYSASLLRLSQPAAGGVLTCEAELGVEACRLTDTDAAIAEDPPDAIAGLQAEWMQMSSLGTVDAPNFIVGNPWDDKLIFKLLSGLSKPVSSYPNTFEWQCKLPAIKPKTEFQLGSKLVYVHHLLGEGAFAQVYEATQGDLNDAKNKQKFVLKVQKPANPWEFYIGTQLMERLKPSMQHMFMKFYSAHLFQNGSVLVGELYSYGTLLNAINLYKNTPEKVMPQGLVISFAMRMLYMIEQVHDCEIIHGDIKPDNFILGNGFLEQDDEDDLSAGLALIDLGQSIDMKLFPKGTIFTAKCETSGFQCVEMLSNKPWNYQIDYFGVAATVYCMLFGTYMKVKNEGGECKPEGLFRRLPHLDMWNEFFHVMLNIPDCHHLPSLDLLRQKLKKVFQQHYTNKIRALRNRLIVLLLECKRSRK
Sequence of UniProt O75716 (O75716 whole entry): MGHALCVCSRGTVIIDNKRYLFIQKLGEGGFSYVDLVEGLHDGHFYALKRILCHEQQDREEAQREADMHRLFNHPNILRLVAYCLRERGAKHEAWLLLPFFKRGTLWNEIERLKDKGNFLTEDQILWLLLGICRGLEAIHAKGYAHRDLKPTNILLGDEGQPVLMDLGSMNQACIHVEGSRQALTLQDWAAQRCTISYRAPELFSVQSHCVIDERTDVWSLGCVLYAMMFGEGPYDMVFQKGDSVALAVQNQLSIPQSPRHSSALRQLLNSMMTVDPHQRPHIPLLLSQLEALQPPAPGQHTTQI
Sequence of UniProt P06493 (P06493 whole entry, looked up): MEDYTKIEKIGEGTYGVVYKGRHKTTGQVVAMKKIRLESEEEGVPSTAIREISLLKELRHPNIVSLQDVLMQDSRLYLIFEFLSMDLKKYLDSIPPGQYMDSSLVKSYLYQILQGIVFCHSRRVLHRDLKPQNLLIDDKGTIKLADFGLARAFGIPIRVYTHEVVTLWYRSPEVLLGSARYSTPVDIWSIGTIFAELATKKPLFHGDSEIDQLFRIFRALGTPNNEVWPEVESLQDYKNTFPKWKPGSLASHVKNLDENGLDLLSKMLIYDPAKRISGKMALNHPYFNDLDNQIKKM
Sequence of UniProt Q13557 (Q13557 whole entry): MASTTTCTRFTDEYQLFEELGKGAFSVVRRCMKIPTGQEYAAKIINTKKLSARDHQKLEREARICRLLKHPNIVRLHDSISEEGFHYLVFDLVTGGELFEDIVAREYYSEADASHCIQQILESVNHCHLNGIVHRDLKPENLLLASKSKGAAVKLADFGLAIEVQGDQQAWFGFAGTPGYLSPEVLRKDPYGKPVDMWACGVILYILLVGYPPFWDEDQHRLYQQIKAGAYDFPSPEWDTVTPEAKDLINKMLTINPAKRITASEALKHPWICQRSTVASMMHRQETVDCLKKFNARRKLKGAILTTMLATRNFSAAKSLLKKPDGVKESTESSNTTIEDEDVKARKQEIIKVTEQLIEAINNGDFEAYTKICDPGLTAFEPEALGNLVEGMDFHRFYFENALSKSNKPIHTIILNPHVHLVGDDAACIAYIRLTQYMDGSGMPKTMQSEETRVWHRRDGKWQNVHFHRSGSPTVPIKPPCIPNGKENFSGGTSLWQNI
Sequence of FGFR1 (P11362 whole entry, looked up): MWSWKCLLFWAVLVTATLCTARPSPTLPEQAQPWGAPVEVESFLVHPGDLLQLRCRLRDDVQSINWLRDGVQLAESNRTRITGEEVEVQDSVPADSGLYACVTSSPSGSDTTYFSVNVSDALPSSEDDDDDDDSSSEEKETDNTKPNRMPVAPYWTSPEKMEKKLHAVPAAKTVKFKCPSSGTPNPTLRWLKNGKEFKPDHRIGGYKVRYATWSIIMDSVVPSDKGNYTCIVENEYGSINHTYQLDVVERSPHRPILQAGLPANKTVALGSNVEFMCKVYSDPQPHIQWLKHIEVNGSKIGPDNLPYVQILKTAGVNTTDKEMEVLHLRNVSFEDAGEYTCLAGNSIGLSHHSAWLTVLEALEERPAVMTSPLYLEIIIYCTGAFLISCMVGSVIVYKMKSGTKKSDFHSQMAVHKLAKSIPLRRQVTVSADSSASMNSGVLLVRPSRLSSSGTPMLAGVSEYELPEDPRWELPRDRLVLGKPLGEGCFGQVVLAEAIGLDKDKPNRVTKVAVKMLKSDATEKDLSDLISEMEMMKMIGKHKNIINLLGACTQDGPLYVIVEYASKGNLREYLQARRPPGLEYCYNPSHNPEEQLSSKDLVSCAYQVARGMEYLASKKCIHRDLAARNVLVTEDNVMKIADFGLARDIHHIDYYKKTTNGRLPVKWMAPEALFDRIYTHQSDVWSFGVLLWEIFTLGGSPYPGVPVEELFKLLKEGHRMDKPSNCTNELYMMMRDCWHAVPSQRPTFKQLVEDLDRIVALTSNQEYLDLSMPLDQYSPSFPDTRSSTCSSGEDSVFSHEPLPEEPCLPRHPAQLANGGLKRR
Sequence of UniProt P49841 (P49841 whole entry, looked up): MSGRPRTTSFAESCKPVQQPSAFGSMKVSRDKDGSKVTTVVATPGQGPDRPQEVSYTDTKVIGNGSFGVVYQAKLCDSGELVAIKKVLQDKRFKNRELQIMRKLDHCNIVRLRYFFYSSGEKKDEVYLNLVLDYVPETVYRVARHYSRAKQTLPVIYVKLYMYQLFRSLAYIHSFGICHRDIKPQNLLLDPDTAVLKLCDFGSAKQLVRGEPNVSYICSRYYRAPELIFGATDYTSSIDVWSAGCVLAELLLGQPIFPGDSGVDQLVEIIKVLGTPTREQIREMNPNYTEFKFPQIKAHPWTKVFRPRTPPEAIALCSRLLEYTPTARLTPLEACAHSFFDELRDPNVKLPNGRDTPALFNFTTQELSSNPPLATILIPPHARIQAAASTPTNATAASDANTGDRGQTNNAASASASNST

Structure (SMILES): O=C(NCCNC(=O)c1cc(Nc2cc(C3CC3)[nH]n2)nc(N2CCN(Cc3ccc(S(=O)(=O)F)cc3)CC2)n1)OC1CC/C=C/CCC1 (configuration not stated)
- pIC50 (UniProt Q13164; cell material: Jurkat cells): 4.92
- pIC50 (UniProt Q13164; cell material: Jurkat lysate): < 4.52
- pIC50 (UniProt Q13164; cell material: Lysate mix): < 4.52
- pIC50 (UniProt Q05397; cell material: Jurkat cells): < 4.52
- pIC50 (UniProt Q05397; cell material: Jurkat lysate): < 4.52
- pIC50 (UniProt Q05397; cell material: Lysate mix): < 4.52
- pIC50 (UniProt Q13557; cell material: Jurkat cells): < 4.52
- pIC50 (UniProt Q13557; cell material: Jurkat lysate): < 4.52
- pIC50 (UniProt Q13557; cell material: Lysate mix): < 4.52
- pIC50 (UniProt P48729; cell material: Jurkat lysate): < 4.52
- pIC50 (UniProt P48729; cell material: Lysate mix): < 4.52
- pIC50 (UniProt O14920; cell material: Jurkat cells): < 4.52
- pIC50 (UniProt O14920; cell material: Jurkat lysate): < 4.52
- pIC50 (UniProt O14920; cell material: Lysate mix): < 4.52
- pIC50 (UniProt Q13233; cell material: Jurkat cells): < 4.52
- pIC50 (UniProt Q13233; cell material: Jurkat lysate): < 4.52
- pIC50 (UniProt Q13233; cell material: Lysate mix): < 4.52
- pIC50 (UniProt P06493; cell material: Jurkat cells): 5.11
- pIC50 (UniProt P06493; cell material: Jurkat lysate): < 4.52
- pIC50 (UniProt P06493; cell material: Lysate mix): < 4.52
- pIC50 (UniProt Q15418; cell material: Jurkat cells): 5.78
- pIC50 (UniProt Q15418; cell material: Jurkat lysate): < 4.52
- pIC50 (EIF2AK4; cell material: Jurkat cells): 5.62
- pIC50 (EIF2AK4; cell material: Jurkat lysate): < 4.52
- pIC50 (EIF2AK4; cell material: Lysate mix): < 4.52
- pIC50 (BUB1; cell material: Jurkat cells): < 4.52
- pIC50 (BUB1; cell material: Jurkat lysate): < 4.52
- pIC50 (BUB1; cell material: Lysate mix): < 4.52
- pIC50 (CDK6; cell material: Jurkat cells): 6.38
- pIC50 (CDK6; cell material: Jurkat lysate): < 4.52
- pIC50 (CDK6; cell material: Lysate mix): < 4.52
- pIC50 (FGFR1; cell material: Jurkat lysate): < 4.52
- pIC50 (FGFR1; cell material: Lysate mix): < 4.52
- pIC50 (UniProt P49841; cell material: Jurkat cells): 4.84
- pIC50 (UniProt P49841; cell material: Jurkat lysate): < 4.52
- pIC50 (UniProt P49841; cell material: Lysate mix): < 4.52
- pIC50 (UniProt O75716; cell material: Jurkat cells): 4.81
- pIC50 (UniProt O75716; cell material: Jurkat lysate): < 4.52
- pIC50 (UniProt O75716; cell material: Lysate mix): < 4.52
- pIC50 (UniProt O14757; cell material: Jurkat cells): < 4.52
- pIC50 (UniProt O14757; cell material: Jurkat lysate): < 4.52
- pIC50 (UniProt O14757; cell material: Lysate mix): < 4.52
- pIC50 (STK39; cell material: Jurkat cells): 5.62
- pIC50 (STK39; cell material: Jurkat lysate): < 4.52
- pIC50 (TGFBR2; cell material: Jurkat cells): < 4.52
- pIC50 (TGFBR2; cell material: Jurkat lysate): < 4.52
- pIC50 (TGFBR2; cell material: Lysate mix): < 4.52
- pIC50 (UniProt Q92918; cell material: Jurkat cells): 5.32
- pIC50 (UniProt Q92918; cell material: Jurkat lysate): < 4.52
- pIC50 (UniProt Q92918; cell material: Lysate mix): < 4.52
- pIC50 (UniProt Q13188; cell material: Jurkat cells): 5.6
- pIC50 (UniProt Q13188; cell material: Lysate mix): < 4.52

Structure (SMILES): Cc1cc(Nc2cc(C(=O)NCCNC(=O)OC3CC/C=C/CCC3)nc(N3CCN(Cc4ccc(S(=O)(=O)F)cc4)CC3)n2)n[nH]1 (configuration not stated)
- pIC50 (UniProt Q13164; cell material: Lysate mix): < 4.52
- pIC50 (UniProt Q05397; cell material: Lysate mix): < 4.52
- pIC50 (CDK4): < 4.52
- pIC50 (UniProt Q13557; cell material: Lysate mix): < 4.52
- pIC50 (UniProt P48729; cell material: Lysate mix): < 4.52
- pIC50 (UniProt O14920; cell material: Lysate mix): < 4.52
- pIC50 (UniProt Q13233; cell material: Lysate mix): < 4.52
- pIC50 (UniProt P06493; cell material: Lysate mix): < 4.52
- pIC50 (UniProt Q15418; cell material: Lysate mix): < 4.52
- pIC50 (EIF2AK4; cell material: Lysate mix): < 4.52
- pIC50 (BUB1; cell material: Lysate mix): < 4.52
- pIC50 (CDK6; cell material: Lysate mix): < 4.52
- pIC50 (FGFR1; cell material: Lysate mix): < 4.52
- pIC50 (UniProt P49841; cell material: Lysate mix): < 4.52
- pIC50 (UniProt O75716; cell material: Lysate mix): < 4.52
- pIC50 (UniProt O14757; cell material: Lysate mix): < 4.52
- pIC50 (STK39; cell material: Lysate mix): < 4.52
- pIC50 (TGFBR2; cell material: Lysate mix): < 4.52
- pIC50 (UniProt Q92918; cell material: Lysate mix): < 4.52
- pIC50 (UniProt Q13188; cell material: Lysate mix): < 4.52

Structure (SMILES): CCNC(=O)c1cc(Nc2cc(C3CC3)[nH]n2)nc(N2CCN(Cc3ccc(S(=O)(=O)F)cc3)CC2)n1
- pIC50 (UniProt Q13164; cell material: Lysate mix): 5.16
- pIC50 (UniProt Q05397; cell material: Lysate mix): < 4.52
- pIC50 (CDK4): 5.05
- pIC50 (UniProt Q13557; cell material: Lysate mix): < 4.52
- pIC50 (UniProt P48729; cell material: Lysate mix): < 4.52
- pIC50 (UniProt O14920; cell material: Lysate mix): < 4.52
- pIC50 (UniProt Q13233; cell material: Lysate mix): < 4.52
- pIC50 (UniProt P06493; cell material: Lysate mix): 5.5
- pIC50 (UniProt Q15418; cell material: Lysate mix): 5.37
- pIC50 (EIF2AK4; cell material: Lysate mix): 5.35
- pIC50 (BUB1; cell material: Lysate mix): < 4.52
- pIC50 (CDK6; cell material: Lysate mix): 5.52
- pIC50 (FGFR1; cell material: Lysate mix): 5.24
- pIC50 (UniProt P49841; cell material: Lysate mix): < 4.52
- pIC50 (UniProt O75716; cell material: Lysate mix): 5.46
- pIC50 (UniProt O14757; cell material: Lysate mix): < 4.52
- pIC50 (STK39; cell material: Lysate mix): 5.65
- pIC50 (TGFBR2; cell material: Lysate mix): < 4.52
- pIC50 (UniProt Q92918; cell material: Lysate mix): 5.8
- pIC50 (UniProt Q13188; cell material: Lysate mix): 5.94
